Assay results taken from ChEMBL document CHEMBL4513160, “CO-ADD screening of MMV (CH) - Small Polar Library”.
In brackets after ≈: the same amount, converted by molar mass.

Legend:
Pseudomonas aeruginosa [1] = assay: Antibacterial activity against Pseudomonas aeruginosa PAO397 [PAO1 d(mexAB-oprM) d(mexCD-oprJ) d(mexEF-oprN) d(mexJKL) d(mexXY) d(opmH)] (CO-ADD:GN_211); MIC in CAMBH media using NBS plates, by OD(600); type: functional; settings: ASSAY_TEST Inhibition of Bacterial Growth, detection method Absorption (OD600), MEDIA CAMHB, plate type 384well, CORNING #3640, time 18 hr
Pseudomonas aeruginosa [2] = assay: microbe, parasite or virus in culture; settings: ATCC 27853, 18 h, ASSAY_TEST Inhibition of Bacterial Growth, detection method Absorption (OD600), MEDIA CAMHB, plate type 384well, NBS, CORNING #3640
Description: Antibacterial activity against Pseudomonas aeruginosa ATCC 27853 (CO-ADD:GN_042); MIC in CAMBH media using NBS plates, by OD(600)

Acinetobacter baumannii = assay: microbe, parasite or virus in culture; settings: ATCC 19606, 18 h, ASSAY_TEST Inhibition of Bacterial Growth, detection method Absorption (OD600), MEDIA CAMHB, plate type 384well, NBS, CORNING #3640
Description: Antibacterial activity against Acinetobacter baumannii ATCC 19606 (CO-ADD:GN_034); MIC in CAMBH media using NBS plates, by OD600

| SMILES | MIC (Pseudomonas aeruginosa [1]) | MIC (Pseudomonas aeruginosa [2]) | MIC (Acinetobacter baumannii) |
| --- | --- | --- | --- |
| CN1CCCN(c2nc3ccccc3cc2CO)CC1 | > 300 µM | > 300 µM | > 300 µM |
| Cc1cc(N2CCN(CCO)CC2)nc2ccccc12 | > 300 µM | > 300 µM | > 300 µM |
| CC(CSc1n[nH]c(-c2ccccn2)n1)CS(C)(=O)=O (configuration not stated) | > 300 µM | > 300 µM | > 300 µM |
| CN(C)CCC(=O)c1ccc(F)cc1 | > 300 µM | > 300 µM | > 300 µM |
| CC(CO)NC(=O)Nc1nc(-c2ccccc2)ns1 (configuration not stated) | 200 µM (≈ 55.7 µg/mL) | > 300 µM | > 300 µM |
| CN(C(=O)CN)c1ccc(-c2ccccc2)cc1 | > 300 µM | > 300 µM | > 300 µM |
| CCS(=O)(=O)NCC(N)c1ccc(C(C)C)cc1 (configuration not stated) | > 300 µM | > 300 µM | > 300 µM |
| Cc1cccc(OCCc2noc(C3CNC3)n2)c1 | 200 µM (≈ 51.9 µg/mL) | > 300 µM | > 300 µM |
| Cc1cccc(S(=O)(=O)NC2CCNC2)c1Cl (configuration not stated) | > 300 µM | > 300 µM | > 300 µM |
| Cc1ncc(C)c(N)n1 | > 300 µM | 300 µM (≈ 36.9 µg/mL) | > 300 µM |
| CC(Nc1ccc(C#N)cn1)c1ccc2c(c1)OCO2 (configuration not stated) | > 300 µM | > 300 µM | > 300 µM |
| NCC1CCN(CCc2ccccc2)C1 (configuration not stated) | > 300 µM | > 300 µM | > 300 µM |
| CN(CCOc1ccc(Cl)cc1)C(=O)C(C)(C)CN | > 300 µM | > 300 µM | > 300 µM |
| Cn1cc(NC(=O)c2ccc(Br)s2)cc1C(N)=O | > 300 µM | > 300 µM | > 300 µM |
| Nc1nc(-c2ccc3c(c2)CCCC(=O)N3)cs1 | > 300 µM | > 300 µM | > 300 µM |
| CCCNc1nc(C)c(C(C)=O)s1 | 200 µM (≈ 39.7 µg/mL) | > 300 µM | > 300 µM |
| NCC(CO)Cc1ccc(Br)cc1 (configuration not stated) | > 300 µM | > 300 µM | > 300 µM |
| Cn1ncnc1NC(=O)c1ccc(C#N)cc1 | 200 µM (≈ 45.4 µg/mL) | 200 µM (≈ 45.4 µg/mL) | > 300 µM |
| Cc1nnc(SCC(=O)NCCCc2csc(N)n2)s1 | > 300 µM | > 300 µM | > 300 µM |
| Cc1cccc(NC(C)c2ccc(S(N)(=O)=O)cc2)n1 (configuration not stated) | > 300 µM | > 300 µM | > 300 µM |
| Cc1cscc1C(=O)Nc1ncnn1C | > 300 µM | > 300 µM | > 300 µM |

| SMILES | MIC (Pseudomonas aeruginosa [1]) | MIC (Pseudomonas aeruginosa [2]) | MIC (Acinetobacter baumannii) |
| --- | --- | --- | --- |
| CC(Sc1n[nH]c(-c2ccccn2)n1)C(=O)N(C)C (configuration not stated) | > 300 µM | > 300 µM | > 300 µM |
| N#Cc1cc(N2CCC[C@@H]2CO)nc2ccccc12 | > 300 µM | > 300 µM | > 300 µM |
| OCCCN(CCO)Cc1c(Cl)ccc2cccnc12 | > 300 µM | > 300 µM | > 300 µM |
| NCCc1cccc2cc[nH]c12 | > 300 µM | > 300 µM | > 300 µM |
| NCc1cccc(-c2ccccn2)n1 | 200 µM (≈ 37 µg/mL) | 300 µM (≈ 55.6 µg/mL) | > 300 µM |
| Cc1ccc(C(N)c2ccccn2)cc1 (configuration not stated) | > 300 µM | > 300 µM | > 300 µM |
| NC1CCN(c2ccccc2F)CC1 | > 300 µM | > 300 µM | > 300 µM |
| CCc1cccc(S(=O)(=O)N2CCC(NC)C2)c1 (configuration not stated) | > 300 µM | > 300 µM | > 300 µM |
| N[C@@H]1CCCc2c(F)cc(F)cc21 | > 300 µM | > 300 µM | > 300 µM |
| NCc1cnn(-c2cccc(Cl)c2)c1 | > 300 µM | > 300 µM | > 300 µM |
| CN(C)C(=O)CCNc1ccnc2ccc(Cl)cc12 | > 300 µM | > 300 µM | > 300 µM |
| Cc1ccncc1NC1CS(=O)(=O)c2ccccc21 (configuration not stated) | > 300 µM | > 300 µM | > 300 µM |
| Cc1ccc2c(N)noc2n1 | 135 µM (≈ 20.1 µg/mL) | 135 µM (≈ 20.1 µg/mL) | > 300 µM |
| NCc1cnn(-c2ccc(Cl)cc2)c1 | > 300 µM | > 300 µM | > 300 µM |
| O=C(CSc1ncn[nH]1)Nc1ncc(Br)s1 | > 300 µM | > 300 µM | > 300 µM |
| N#CC(c1ccc(Br)cc1)N1CCNCC1 (configuration not stated) | > 300 µM | > 300 µM | > 300 µM |
| NCC(O)c1ccc(-c2ccccc2)cc1 (configuration not stated) | > 300 µM | > 300 µM | > 300 µM |
| NCC1Cc2ccccc21 (configuration not stated) | > 300 µM | > 300 µM | > 300 µM |
| Cc1cc(Br)cc(C(=O)NCc2nccc(N)n2)c1 | > 300 µM | > 300 µM | > 300 µM |
| NC1CSCc2c(F)cccc21 (configuration not stated) | > 300 µM | > 300 µM | > 300 µM |
| Nc1cnccc1N1CCCCC1 | > 300 µM | > 300 µM | > 300 µM |

| SMILES | MIC (Pseudomonas aeruginosa [1]) | MIC (Pseudomonas aeruginosa [2]) | MIC (Acinetobacter baumannii) |
| --- | --- | --- | --- |
| CSC(C)(C)COC(=O)c1ccc(-n2ccnc2)nc1 | > 300 µM | > 300 µM | > 300 µM |
| Cc1cccc(OCC(O)Cn2ccnc2C)c1 (configuration not stated) | > 300 µM | > 300 µM | > 300 µM |
| CCc1c(C)nc2sc(C(N)=O)c(N)c2c1C | > 300 µM | > 300 µM | > 300 µM |
| Cc1cc(C)c(C#N)c(N2C[C@H](C3CC3)[C@@H](N)C2)n1 | > 300 µM | > 300 µM | > 300 µM |
| CCN1CCN(c2cc(C#N)ccn2)CC1 | > 300 µM | > 300 µM | > 300 µM |
| O=C1C=CC(=O)N1Cc1ccc(Cl)cc1 | > 300 µM | > 300 µM | > 300 µM |
| OCCNCCNCc1ccc(-c2ccccc2F)o1 | > 300 µM | > 300 µM | > 300 µM |
| Cc1ccc(C(=O)N2CCN(c3nccs3)CC2)o1 | > 300 µM | > 300 µM | > 300 µM |
| OCCNCCNCc1ccc(-c2ccccc2Cl)o1 | > 300 µM | > 300 µM | > 300 µM |
| CC(C)(N)CN1CCN(c2cccc(Cl)c2)CC1 | > 300 µM | > 300 µM | > 300 µM |
| CNC(CO)c1cccc(Cl)c1Cl (configuration not stated) | > 300 µM | > 300 µM | > 300 µM |
| COc1ccc(F)c(N2CCNCC2)c1 | > 300 µM | > 300 µM | > 300 µM |
| O=C(Nc1cc[nH]n1)c1csc(I)c1 | > 300 µM | > 300 µM | > 300 µM |
| c1ccc(Nc2nccs2)nc1 | > 300 µM | > 300 µM | > 300 µM |
| CC1COC2(CCN(C(=O)c3ccc(Cl)s3)CC2)O1 (configuration not stated) | > 300 µM | > 300 µM | > 300 µM |
| O=C(c1c(O)cccc1F)N1CCc2cnccc21 | > 300 µM | > 300 µM | > 300 µM |
| CC(C)NC(=O)NCC1(N2CCOCC2)CCSC1 (configuration not stated) | > 300 µM | > 300 µM | > 300 µM |
| Cn1ccc(C(=O)Nc2ccc(Br)cn2)n1 | > 300 µM | > 300 µM | > 300 µM |
| NCCS(=O)(=O)N1CCCc2ccccc21 | > 300 µM | > 300 µM | > 300 µM |
| c1cc2c(cc1C1=NN=C(NC3CC3)SC1)OCCO2 | > 300 µM | > 300 µM | > 300 µM |
| CCOC(=O)C(CN)CC(C)C (configuration not stated) | > 300 µM | > 300 µM | > 300 µM |

| SMILES | MIC (Pseudomonas aeruginosa [1]) | MIC (Pseudomonas aeruginosa [2]) | MIC (Acinetobacter baumannii) |
| --- | --- | --- | --- |
| COc1cccc(-c2ncc(CN)s2)c1 | > 300 µM | > 300 µM | > 300 µM |
| CNC(=O)C1CCN(C(=O)Nc2ccc(C)c(Cl)c2)C1 (configuration not stated) | 90 µM (≈ 26.6 µg/mL) | > 300 µM | > 300 µM |
| CCC(C)(C)NC(=O)c1nnn(-c2ccccc2)c1C | > 300 µM | > 300 µM | > 300 µM |
| CCNCCOc1cccc(OCC)c1 | > 300 µM | > 300 µM | > 300 µM |
| CC(C)CCC(=O)N[C@@H]1CN(C)C[C@H]1CN(C)C | > 300 µM | > 300 µM | > 300 µM |
| CCOc1ncc(C(=O)NCC(C)(O)C(C)C)cc1Cl (configuration not stated) | > 300 µM | > 300 µM | > 300 µM |
| O=C(NC[C@H]1CCCN1)c1ccc2cccc(Cl)c2n1 | 300 µM (≈ 86.9 µg/mL) | > 300 µM | > 300 µM |
| CCCOc1ccc(CN)cc1 | > 300 µM | > 300 µM | > 300 µM |
| Cc1c(C(=O)NC2=NCCS2)oc2ccccc12 | > 300 µM | > 300 µM | > 300 µM |
| OC1(Cn2ccnn2)CCCNC1 (configuration not stated) | > 300 µM | > 300 µM | > 300 µM |
| NCCNS(=O)(=O)c1ccc(F)c(C(F)(F)F)c1 | > 300 µM | > 300 µM | > 300 µM |
| O=C(CSCCO)Nc1ncc(-c2ccccc2)s1 | 200 µM (≈ 58.9 µg/mL) | > 300 µM | > 300 µM |
| CC(C)(N)C(O)c1ccc(Br)cc1 (configuration not stated) | > 300 µM | > 300 µM | > 300 µM |
| O=C1NC(Cc2ccccc2)C(=O)Nc2ccccc21 (configuration not stated) | > 300 µM | > 300 µM | > 300 µM |
| NCC(=O)N(Cc1cccs1)Cc1cccs1 | > 300 µM | > 300 µM | > 300 µM |
| CCn1cc(C(=O)Nc2ccc(Br)cn2)cn1 | > 300 µM | > 300 µM | > 300 µM |
| CC(=O)c1ccc(NC(=O)CCc2cccs2)nc1 | > 300 µM | > 300 µM | > 300 µM |
| Cn1cc(CC(=O)Nc2ccc(I)cn2)cn1 | > 300 µM | > 300 µM | > 300 µM |
| N#Cc1nnc(-c2ccccc2)o1 | > 300 µM | > 300 µM | > 300 µM |
| Clc1cccnc1N1CCC(Nc2cccnc2)CC1 | > 300 µM | > 300 µM | > 300 µM |
| CCCn1cnnc1CNC | > 300 µM | > 300 µM | > 300 µM |
